Assays:
[1] = target: protease-activated receptor type 4 (PAR4) (Homo sapiens (Human), UniProt Q96RI0); settings: abstract of Lee et al., J. Med. Chem. 2001; cited from earlier work
[2] = test system: washed platelets; test: PAR4 agonist peptide induced platelet aggregation assay (washed platelets); format: cell-based, human; settings: agonist activity
Protocol: Human blood was collected in ACD (85 mM tri-sodium citrate, 78 mM citric acid, 110 mM D-glucose, pH 4.4) at a ratio of 1.4 ml per 10 ml blood. PRP was isolated by centrifugation at 170 g for 14 minutes and platelets were further pelleted by centrifugation at 1300 g for 6 minutes. Platelets were washed once with 10 ml ACD containing 1 mg/ml bovine serum albumin.
The ability of the compounds of the current invention to induce platelet aggregation was tested in a 96-well microplate aggregation assay format. Briefly, a washed platelet suspension with varying concentrations of agonist compounds was assayed. Aggregation was initiated by the addition of a titered test agonist peptide. The plate was then placed into a 37° C. Molecular Devices SPECTRAMAX® Plus Plate Reader (Sunnyvale, Calif.). […] The plate also included an untreated control sample which served as ODmax, while buffer containing no platelets was the ODmin. Platelet aggregation was determined by subtracting the ODmax from the ODmin for the 100% aggregation value. In experimental samples, the observed transmission was subtracted from the minimum value and then compared to the 100% aggregation value to determine the percentage aggregation. ED50 values were determined using Excel Fit software.

[3] = target: T1, PAR4 (Homo sapiens (Human), UniProt Q96RI0); test: FLIPR assay in PAR4-expressing HEK293 cells, test for antagonist activity; format: cell-based; settings: H-Ala-Phe(4-F)-Pro-Gly-Trp-Leu-Val-Lys-Asn-Gly-NH2-induced calcium mobilization
T1 sequence (Q96RI0 18-385): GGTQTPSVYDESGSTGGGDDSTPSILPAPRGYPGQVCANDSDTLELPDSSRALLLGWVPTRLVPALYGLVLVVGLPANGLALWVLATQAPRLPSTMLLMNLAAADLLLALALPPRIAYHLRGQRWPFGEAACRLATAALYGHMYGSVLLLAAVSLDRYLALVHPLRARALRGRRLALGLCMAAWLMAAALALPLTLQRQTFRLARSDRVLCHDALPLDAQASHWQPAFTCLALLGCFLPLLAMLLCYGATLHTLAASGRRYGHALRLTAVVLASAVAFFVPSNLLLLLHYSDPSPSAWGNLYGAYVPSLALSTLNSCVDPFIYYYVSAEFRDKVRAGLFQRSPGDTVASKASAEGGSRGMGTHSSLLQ
From the text: The FLIPR assay is an exemplary in vitro assay for measuring the activity of the PAR4 antagonists of the present invention. In this assay, intracellular calcium mobilization is induced in PAR4 expressing cells by a PAR4 agonist and calcium mobilization is monitored. See, e.g., Example A. The FLIPR assay is also an exemplary in vitro assay for measuring the agonist activity of PAR4 agonist peptides. See Example H.
HEK293 cells stably expressing PAR4 were generated by a standard method of transfection of human […] cDNA expression vector or by RAGE technology from Athersys Inc. (Cleveland, Ohio) and selected based on PAR4 protein expression of mRNA expression. […] These cells express endogenous PAR1 and can elicit calcium signal upon stimulation with PAR1 agonist peptide.
Counter screens for agonist activity and PAR1 antagonist activity were also performed. Briefly, HEK293 EBNA PAR4 clone 20664.1J cells were plated 24 hrs. prior to experiment in 384 well, Poly-D-Lysine coated, black, clear bottom plates (Greiner Bio-One, Monroe, N.C.). Cells were plated at 20,000 cells/well in 20 μl growth medium and incubated at 37° C. with 5% CO2 overnight. At time of assay, media was replaced with 40 μl 1× Hank's Buffered Saline Solution (HBSS) (with 10 mM HEPES) and 20 μl test compound also diluted in 1×HBSS buffer was added at various concentrations and 0.67% DMSO final concentration on the FDSS for agonist measurement. The cells were then incubated for 30 minutes at room temperature followed by addition of 20 μl of agonist peptide for antagonist measurement on the FDSS.

[4] = target: T1, PAR4; test: Gamma thrombin induced platelet aggregation assay (PRP assay); format: cell-based; settings: platelet rich plasma
Protocol: The platelet rich plasma was isolated by centrifugation at 170 g for 14 minutes.
The ability of the compounds of the current invention to inhibit platelet aggregation induced by gamma-thrombin was tested in a 96-well microplate aggregation assay format. Briefly, PRP or washed platelet suspension (100 μl) was pre-incubated for 5 minutes at room temperature with varying concentrations of compounds. Aggregation was initiated by ˜10-50 nM gamma thrombin (Haematologic Technologies, Essex Junction, Vt.), which was titrated daily to achieve 80% platelet aggregation. Refludan at 1 U/mL (Berlex, Montville, N.J.) was added to the gamma thrombin sample to prevent PAR1 activation induced by residual alpha-thrombin contamination. The plate was then placed into a 37° C. Molecular Devices (Sunnyvale, Calif.) SPECTRAMAX® Plus Plate Reader. […] The plate also included an untreated control sample which served as ODmax, while buffer containing no platelets was the ODmin. Platelet aggregation was determined by subtracting the ODmax from the ODmin for the 100% aggregation value. In experimental samples, the observed transmission was subtracted from the minimum value and then compared to the 100% aggregation value to determine the percentage aggregation. IC50 values are determined using Excel Fit software.

[5] = TRACER phase III trial, ACS patients; cited from earlier work

Sequence of protease-activated receptor type 4 (PAR4) (Q96RI0 18-385): as above

Compound | ED50 (μM) [Platelet Aggregation] [2] [µM] | also measured
CCOC(=O)c1ccc(-c2nn(Cc3ccccc3)c3ccccc23)cc1 [Compound 58] |  | inhibition of PAR4-dependent platelet activation [1]: selective and potent inhibitor
COc1cc(OCc2csc(C)n2)c2cc(-c3cn4nc(OC)sc4n3)oc2c1 [Example 1, 2-Methoxy-6-(6-methoxy-4-((2-methylthiazol-4-yl)methoxy)benzofuran-2-yl)imidazo[2,1-b][1,3,4]thiadiazole] | 13 | 
COc1cc(OCc2csc(C(F)(F)F)n2)c2cc(-c3cn4nc(OC)sc4n3)oc2c1 [Example 2, 2-Methoxy-6-(6-methoxy-4-((2-(trifluoromethyl)thiazol-4-yl)methoxy)benzofuran-2-yl)imidazo[2,1-b][1,3,4]thiadiazole] |  | EC50 [3]: 0.42 nM; IC50 [4]: 49 nM
COc1cc(OCc2csc(-c3ccccc3)n2)c2cc(-c3cn4nc(OC)sc4n3)oc2c1 [Example 3, 2-Methoxy-6-(6-methoxy-4-((2-phenylthiazol-4-yl)methoxy)benzofuran-2-yl)imidazo[2,1-b][1,3,4]thiadiazole] | 0.86 | 
COCCOCc1nc(COc2cc(OC)cc3oc(-c4cn5nc(OC)sc5n4)cc23)cs1 [Example 6, 2-Methoxy-6-(6-methoxy-4-((2-((2-methoxyethoxy)methyl)thiazol-4-yl)methoxy)benzofuran-2-yl)imidazo[2,1-b][1,3,4]thiadiazole] | 1.1 | 
COc1cc(OCc2cn(-c3ccccc3)nn2)c2cc(-c3cn4nc(OC)sc4n3)oc2c1 [Example 9, 2-Methoxy-6-(6-methoxy-4-((1-phenyl-1H-1,2,3-triazol-4-yl)methoxy)benzofuran-2-yl)imidazo[2,1-b][1,3,4]thiadiazole] |  | EC50 [3]: 5.3 nM; IC50 [4]: > 3000 nM
COc1cc(OCc2cnnn2-c2ccccc2)c2cc(-c3cn4nc(OC)sc4n3)oc2c1 [Example 10, 2-Methoxy-6-(6-methoxy-4-((1-phenyl-1H-1,2,3-triazol-5-yl)methoxy)benzofuran-2-yl)imidazo[2,1-b][1,3,4]thiadiazole] |  | EC50 [3]: 3.5 nM; IC50 [4]: 2700 nM
COc1cc(OCc2csc(-c3cccc(C)c3)n2)c2cc(-c3cn4nc(OC)sc4n3)oc2c1 [Example 12] | 0.97 | 
COc1cc(OCc2nc(-c3ccccc3)sc2C)c2cc(-c3cn4nc(OC)sc4n3)oc2c1 [Example 13] | 0.67 | 
COc1cc(OCc2csc(C3CCOCC3)n2)c2cc(-c3cn4nc(OC)sc4n3)oc2c1 [Example 14] | 12.3 | 
COc1cc(OCc2csc(-c3ccc(F)cc3)n2)c2cc(-c3cn4nc(OC)sc4n3)oc2c1 [Example 15] | 0.63 | 
COc1cc(OCc2csc(-c3ccccc3Cl)n2)c2cc(-c3cn4nc(OC)sc4n3)oc2c1 [Example 16] | 37 | 
COc1cc(OCc2csc(-c3cccc(C(F)(F)F)c3)n2)c2cc(-c3cn4nc(OC)sc4n3)oc2c1 [Example 17] | 106 | 
COc1ccc(-c2nc(COc3cc(OC)cc4oc(-c5cn6nc(OC)sc6n5)cc34)cs2)cc1 [Example 18] | 5.5 | EC50 [3]: 2.5 nM; IC50 [4]: 3.6 nM
COc1cc(OCc2csc(-c3ccccc3OC)n2)c2cc(-c3cn4nc(OC)sc4n3)oc2c1 [Example 19] | 1.6 | 
COc1cc(OCc2csc(C3CCCCC3)n2)c2cc(-c3cn4nc(OC)sc4n3)oc2c1 [Example 20] | 4.1 | 

Compound | ED50 (μM) [Platelet Aggregation] [2] [µM] | also measured
COc1cc(OCc2csc(N3CCCCC3)n2)c2cc(-c3cn4nc(OC)sc4n3)oc2c1 [Example 21] | 2.4 | 
COc1cc(OCc2csc(N3CCN(C)CC3)n2)c2cc(-c3cn4nc(OC)sc4n3)oc2c1 [Example 22] | 1.2 | 
CCc1nc(COc2cc(OC)cc3oc(-c4cn5nc(OC)sc5n4)cc23)cs1 [Example 23] | 0.79 | 
COc1cc(OCc2csc(-c3ccc(F)cc3F)n2)c2cc(-c3cn4nc(OC)sc4n3)oc2c1 [Example 24] | 0.69 | 
COc1cc(OCc2csc(-c3cccc(F)c3)n2)c2cc(-c3cn4nc(OC)sc4n3)oc2c1 [Example 25] | 52 | 
COc1cc(OCc2csc(-c3ccccc3F)n2)c2cc(-c3cn4nc(OC)sc4n3)oc2c1 [Example 26] | 1.0 | 
COc1cc(OCc2csc(-c3ccc(Cl)cc3)n2)c2cc(-c3cn4nc(OC)sc4n3)oc2c1 [Example 27] | 1.7 | 
COc1cc(OCc2csc(-c3ccncc3)n2)c2cc(-c3cn4nc(OC)sc4n3)oc2c1 [Example 28] | 0.76 | 
COc1cc(OCc2csc(-c3ccc(OC(F)(F)F)cc3)n2)c2cc(-c3cn4nc(OC)sc4n3)oc2c1 [Example 29] | 1.0 | 
COc1cc(OCc2csc(-c3cccnc3)n2)c2cc(-c3cn4nc(OC)sc4n3)oc2c1 [Example 30] | 1.7 | 
COc1cc(OCc2csc(N3CCC(F)(F)CC3)n2)c2cc(-c3cn4nc(OC)sc4n3)oc2c1 [Example 31] | 0.63 | 
COc1cc(OCc2csc(-c3cnccn3)n2)c2cc(-c3cn4nc(OC)sc4n3)oc2c1 [Example 32] | 0.61 | 
COc1cc(OCc2csc(-c3cc(C)on3)n2)c2cc(-c3cn4nc(OC)sc4n3)oc2c1 [Example 33] | 1.2 | EC50 [3]: 1.7 nM; IC50 [4]: 38 nM
COc1cc(OCc2cscn2)c2cc(-c3cn4nc(OC)sc4n3)oc2c1 [Example 34] | 3.0 | 
COc1nn2cc(-c3cc4c(OCc5csc(-c6ccccc6)n5)cc(F)cc4o3)nc2s1 [Example 36, 6-(6-Fluoro-4-((2-phenylthiazol-4-yl)methoxy)benzofuran-2-yl)-2-methoxyimidazo[2,1-b][1,3,4]thiadiazole] |  | EC50 [3]: 1 nM; IC50 [4]: 48 nM
CCOC(=O)N[C@@H]1CC[C@@H]2[C@@H](C1)C[C@H]1C(=O)O[C@H](C)[C@H]1[C@H]2/C=C/c1ccc(-c2cccc(F)c2)cn1 [vorapaxar] |  | cardiovascular events [5]: did not significantly reduce cardiovascular events; risk of major bleeding [5]: significantly increased the risk of major bleeding
